# Measurements taken from patent US8158088B2, “Extractant compositions for co-extracting cesium and strontium, a method of separating cesium and strontium from an aqueous feed, and calixarene compounds” (Battelle Energy Alliance, LLC, priority 2008, dated 2012).
# Columns and labels:
# Format in all cases: physicochemical
# [1] = Cesium distribution ratio (DCs), equilibrium batch contact of mixed extractant solvent with nitric acid feed
# Description: The distribution of cesium and strontium between the first organic phase (the mixed extractant solvent including the dialkyloxycalix[4]arenebenzocrown-6 compound) and the first aqueous phase (aqueous feed) may be determined by conventional techniques. The distribution ratio for strontium (“DSr”) may be calculated as the ratio of organic phase activity to the aqueous phase activity at equilibrium. High values for the DSr indicate that the strontium is present predominantly in the organic phase while low values for the DSr indicate that the strontium is present predominantly in the aqueous phase. Similarly, the distribution ratio for cesium (“DCs”) may be calculated as the ratio of organic phase activity to the aqueous phase activity at equilibrium. High values for the DCs indicate that the cesium is present predominantly in the organic phase while low values for the DCs indicate that the cesium is present predominantly in the aqueous phase.
# Distribution ratios (DM=[M]org/[M]aq) were measured by equilibrium batch contacts between the organic and aqueous phases at an organic-to-aqueous phase ratio (O/A) of unity (O/A=1). All distribution ratio measurements were conducted in a temperature controlled water bath at 25±1° C. The aqueous phase was of the appropriate HNO3 concentration, to which trace quantities (typically, less than 10^−7 M each) of the major radionuclides of interest (^137Cs, ^85Sr, ^154Eu, or ^241Am) were added. The organic and aqueous phases were contacted by vortex mixing for 1 minute. All batch contact experiments were performed at ambient temperature (from approximately 20° C. to approximately 25° C.) unless otherwise noted. Following extraction, the samples were centrifuged for 1 minute and the organic and aqueous phases separated by pipet or centrifugation. The distribution ratios (DSr, or DCs) were calculated as the ratio of the appropriate specific activities in the organic and aqueous phases as determined by γ-ray counting (gamma spectroscopy). The counting time was selected to provide less than approximately 1% statistical uncertainty.
# (MC-8, MC-8B, MC-10, MC-10B, MC-12, or MC-12B), 0.075 M DtBuCH18C6, 0.75 M Cs-7SB modifier, and 0.003 M TOA in ISOPAR® L were evaluated for their respective abilities to simultaneously extract cesium and strontium from the aqueous feed simulant composition described in Table 2. The cesium and strontium distribution ratios of the mixed extraction solvents were compared to those of the FPEX I process solvent. The cesium extraction performance and strontium extraction performance of each of the mixed extractant solvents was determined using the batch contact flowsheet presented in FIG. 1, where “E1,” “E2,” and “E3” refer to three forward extraction acts: a first extraction act, a second extraction act, and a third extraction act, respectively, and “St1” and “St2” refer to two backward extraction acts: a first strip act and a second strip act, respectively. […] The aqueous feed 2 and the mixed extractant solvent 4 were combined in a vessel 6 to conduct the extraction. Two phases were formed during the extraction: the first organic phase and the first aqueous phase, with the cesium and strontium substantially distributed in the first organic phase.
# The cesium and strontium distribution ratios for the mixed extractant solvents 4 were calculated for the first organic phase and are reported in Tables 3 and 4, respectively, as E1, along with the cesium and strontium distribution ratios for the FPEX I process solvent. The cesium and strontium were stripped from the first (and subsequent) organic phase to recover these radionuclides. For the strips or backward extractions, the first (and subsequent) organic phase was contacted with dilute acidic solution 8, which was 0.01 M HNO3. […]
# [2] = Solvent stability: cesium distribution ratios as a function of contact time with 1.5 M HNO3
# Protocol: The stability of the mixed extractant solvents prepared using dialkyloxycalix[4]arenebenzocrown-6 compounds (MC-8, MC-8B, MC-10, MC-10B, MC-12, or MC-12B) relative to BOBCalixC6 in the FPEX I process solvent was determined. Samples were prepared using each of the dialkyloxycalix[4]arenebenzocrown-6 compounds and contacted with 1.5 M HNO3. The samples included 0.007 M of the respective dialkyloxycalix[4]arenebenzo-crown-6 compound (MC-8, MC-8B, MC-10, MC-10B, MC-12, or MC-12B), 0.075 M DtBuCH18C6, 0.75 M Cs-7SB modifier, and 0.003 M TOA in ISOPAR® L. The stability of the dialkyloxycalix[4]arene-benzocrown-6 based solvents was evaluated by measuring the cesium and strontium distribution ratios as a function of contact time. These cesium and strontium distribution ratios for the mixed extractant solvents are presented in Table 9 and Table 10, respectively, along with the cesium and strontium distribution ratios for the FPEX I process solvent. The symbol “-” is used in Tables 9 and 10 to indicate no data was collected.
# This degradation is likely due to chemical attack or nitration of the BOBCalixC6 in the FPEX I process solvent. […] However, it is difficult to compare the relative extents of degradation. In order to compare the different extractants, the distribution ratio data presented in Tables 9 and 10 were normalized to the values obtained at t=0 days contact. The normalized cesium and strontium distribution ratios for the FPEX I process solvent and the mixed extractant solvents as a function of contact time are presented in FIGS. 2 and 3, respectively.
# [3] = Strontium distribution ratio (DSr), equilibrium batch contact of mixed extractant solvent with nitric acid feed
# [4] = 0.010 M MC-8, contact E1, 1.5 M HNO3, 0.075 M DtBuCH18C6, 0.75 M Cs-7SB, 0.003 M TOA in ISOPAR L
# [5] = 0.015 M MC-8, contact E1, 1.5 M HNO3
# [6] = 0.020 M MC-8, contact E1, 1.5 M HNO3
# [7] = 0.025 M MC-8, contact E1, 1.5 M HNO3
# [8] = 1.0 M HNO3, 20 °C, contact E1, 0.025 M MC-8, 0.075 M DtBuCH18C6, 0.75 M Cs-7SB, 0.003 M TOA in ISOPAR L
# [9] = 1.5 M HNO3, 20 °C, contact E1, 0.025 M MC-8
# [10] = 2.0 M HNO3, 20 °C, contact E1, 0.025 M MC-8
# [11] = 3.0 M HNO3, 20 °C, contact E1, 0.025 M MC-8
# [12] = 4.0 M HNO3, 20 °C, contact E1, 0.025 M MC-8
# [13] = 15 °C, contact E1, 1.0 M HNO3 feed, 0.025 M MC-8, 0.075 M DtBuCH18C6, 0.75 M Cs-7SB, 0.003 M TOA in ISOPAR L
# [14] = 20 °C, contact E1, 1.0 M HNO3 feed, 0.025 M MC-8
# [15] = 25 °C, contact E1, 1.0 M HNO3 feed, 0.025 M MC-8
# [16] = 30 °C, contact E1, 1.0 M HNO3 feed, 0.025 M MC-8
# [17] = 35 °C, contact E1, 1.0 M HNO3 feed, 0.025 M MC-8
# [18] = contact E1, batch contact flowsheet, simulated feed 1.0 M HNO3, 0.025 M MC-8
# [19] = contact E2, simulated feed 1.0 M HNO3, 0.025 M MC-8
# [20] = contact E3, simulated feed 1.0 M HNO3, 0.025 M MC-8
# [21] = contact St1 (strip), 0.025 M MC-8
# [22] = contact St2 (strip), 0.025 M MC-8
# [23] = first forward extraction, 1.5 M HNO3 feed simulant, 25 °C, 0.007 M calixarene, 0.075 M DtBuCH18C6, 0.75 M Cs-7SB, 0.003 M TOA in ISOPAR L
# [24] = first strip with 0.01 M HNO3, 35 °C, 0.007 M calixarene solvent
# [25] = second forward extraction, 1.5 M HNO3 feed, 25 °C, 0.007 M calixarene solvent
# [26] = second strip with 0.01 M HNO3, 35 °C, 0.007 M calixarene solvent
# [27] = third forward extraction, 1.5 M HNO3 feed, 25 °C, 0.007 M calixarene solvent
compound,measurement,setting,value
"CCCCCCCCOc1c2cccc1Cc1cccc3c1OCCOCCOc1ccccc1OCCOCCOc1c(cccc1Cc1cccc(c1OCCCCCCCC)C3)C2 [MC-8, 1,3-alternate-25,27-di(octyloxy)calix[4]arenebenzocrown-6]",DCs,[1]; [4],7.2
same,DCs,[1]; [5],13.3
same,DCs,[1]; [6],21.5
same,DCs,[1]; [7],29.4
same,cesium distribution ratio,"[1]; 0.05 M MC-8 (as printed in text), 1.5 M HNO3",29
same,DCs,[1]; [8],31.0
same,DCs,[1]; [9],35.6
same,DCs,[1]; [10],39.9
same,DCs,[1]; [11],3rd phase
same,DCs,[1]; [12],3rd phase
same,DCs,[1]; [13],44.5
same,DCs,[1]; [14],24.5
same,DCs,[1]; [15],15.7
same,DCs,[1]; [16],9.9
same,DCs,[1]; [17],6.2
same,DCs,[1]; [18],34.7
same,DCs,[1]; [19],29.0
same,DCs,[1]; [20],21.9
same,DCs,[1]; [21],0.63
same,DCs,[1]; [22],0.25
same,"Cesium distribution ratio, contact E1",[1]; [23],4.2
same,"Cesium distribution ratio, contact St1",[1]; [24],0.6
same,"Cesium distribution ratio, contact E2",[1]; [25],1.9
same,"Cesium distribution ratio, contact St2",[1]; [26],0.2
same,"Cesium distribution ratio, contact E3",[1]; [27],1.5
same,Cesium distribution ratio as a function of contact time,"[2]; contact time 0 days with 1.5 M HNO3, 0.007 M calixarene, 0.075 M DtBuCH18C6, 0.75 M Cs-7SB, 0.003 M TOA in ISOPAR L",4.2
same,Cesium distribution ratio as a function of contact time,[2]; contact time 34 days with 1.5 M HNO3,3.2
same,Cesium distribution ratio as a function of contact time,[2]; contact time 70 days with 1.5 M HNO3,3.6
same,Cesium distribution ratio as a function of contact time,[2]; contact time 278 days with 1.5 M HNO3,2.8
same,DSr,[3]; [4],8.9
same,DSr,[3]; [5],7.2
same,DSr,[3]; [6],9.4
same,DSr,[3]; [7],9.1
same,DSr,[3]; [8],7.4
same,DSr,[3]; [9],12.4
same,DSr,[3]; [10],16.2
same,DSr,[3]; [11],3rd phase
same,DSr,[3]; [12],3rd phase
same,DSr,[3]; [13],9.0
same,DSr,[3]; [14],6.0
same,DSr,[3]; [15],4.6
same,DSr,[3]; [16],3.4
same,DSr,[3]; [17],2.5
same,DSr,[3]; [18],7.1
same,DSr,[3]; [19],6.2
same,DSr,[3]; [20],6.2
same,DSr,[3]; [21],0.022
same,DSr,[3]; [22],0.006
same,"Strontium distribution ratio, contact E1",[3]; [23],10.5
same,"Strontium distribution ratio, contact St1",[3]; [24],0.06
same,"Strontium distribution ratio, contact E2",[3]; [25],8.6
same,"Strontium distribution ratio, contact St2",[3]; [26],0.01
same,"Strontium distribution ratio, contact E3",[3]; [27],8.5
